From US20190307811A1, “METHOD FOR TREATING AIRWAYS DISEASE” (HUDSON INSTITUTE OF MEDICAL RESEARCH, priority 2016, published 2019) come the findings set out here.

Experiment [1] concerns bleomycin (BLM)-induced model of pulmonary fibrosis. The experiment in a line: Subepithelial ECM/collagen deposition, bleomycin-induced pulmonary fibrosis model. Type of experiment: in vivo. Conditions: BLM-injured mice, treatment days 22-28. Here is the method: (§1) The following is relevant to Example 10. A bleomycin (BLM)-induced model of pulmonary fibrosis was established in mice (n=49). Mice were intranasally (IN) administered with 20 μg of bleomycin sulphate (Hospira, Melbourne, Victoria, Australia) in 50 μl of saline (equivalent to 400 μg/ml; 25 μl per nare) on days 0 and 7. For control mice (n=7), however, instead of BLM, they were given IN administration (50 μL per mouse) of 0.9% w/v saline on days 0 and 7. All mice were then left untreated for a further two weeks (until day 21).
(§2) On day 22 (1 day following completion of induction of the BLM-induced pulmonary fibrosis model), mice were lightly anaesthetized with isoflurane (Baxter Health Care, NSW, Australia) and held in a semi-supine position while IN administration of the appropriate treatment took place. The following treatments were administered daily or once-weekly to mice, from days 22-28.
(§3) BLM alone (injury control group): a-sub-group of mice (n=7) received 50 μL of phosphate buffered saline (PBS; the vehicle for Pirfenidone, AECs and AEC-derived exosomes; 25 μL per nare) daily, using an automatic pipette from days 22-28,
(§4) Pirfenidone: a separate sub-group of mice (n=7) received 1 mg of Pirfenidone (Tocris Bioscience, Noble Park, Victoria, Australia) per day (equivalent to 50 mg/kg/day) by twice daily oral gavage, from days 22-28. […]

Experiment [2] shares this test system. The experiment in a line: Lung inflammation score, bleomycin-induced pulmonary fibrosis model. The format is in vivo. Conditions: BLM-injured mice, treatment days 22-28. Here is the method: as §1, §2, §3, §4
For experiment [3] the test system is unchanged. The experiment in a line: Interstitial fibrosis, bleomycin-induced pulmonary fibrosis model. The format is in vivo. Conditions: BLM-injured mice, treatment days 22-28. Here is the method:
as §1, §2, §3, §4

Experiment [4] concerns chronic model of ovalbumin (OVA)-induced AAD. The experiment can be described thus: Epithelial thickness (Masson's trichrome), chronic OVA-induced AAD model. Type of experiment: in vivo, Balb/c mice. Conditions: relative to BM length; OVA-treated mice; OVA alone 21.20±0.60, saline 16.89±0.76. Here is the method:
(§5) To assess the individual vs combined effects of MSCs, AECs and RLX (serelaxin) in chronic AAD, a chronic model of ovalbumin (OVA)-induced AAD was established in mice (n=36). Mice were sensitized with two i.p. injections of 10 μg of Grade V chicken egg OVA (Sigma-Aldrich, Mo., USA) and 400 μg of aluminium potassium sulphate adjuvant (alum; AJAX Chemicals, NSW, Australia) in 500 μl of 0.9% w/v normal saline solution (Baxter Health Care, NSW, Australia) on day 0 and day 14. They were then challenged by whole body inhalation exposure (nebulization) to aerosolized OVA (2.5% w/v in 0.9% w/v normal saline) for thirty minutes, three times a week, between days 21 and 63, using an ultrasonic nebulizer (Omron NE-U07; Omron, Kyoto, Japan). Control mice (n=6) were given i.p injections of 500 μl 0.9% w/v saline and nebulized with 0.9% w/v saline instead of OVA.
(§6) On day 64 (1 day following completion of induction of the chronic AAD model), mice were lightly anaesthetized with isoflurane (Baxter Health Care, NSW, Australia) and held in a semisupine position while intranasal administration of the appropriate treatment took place. […]

The subject of a further experiment is TGF-β1. The experiment can be described thus: Airway epithelial TGF-β1 immunohistochemistry, chronic OVA-induced AAD model. Type of experiment: in vivo, Balb/c mice. Conditions: relative to saline-treated controls expressed as 1; OVA alone 10.65±0.81. As to the method: (§7) To assess the individual vs combined effects of MSCs, AECs and RLX (serelaxin) in chronic AAD, a chronic model of ovalbumin (OVA)-induced AAD was established in mice (n=36). Mice were sensitized with two i.p. injections of 10 μg of Grade V chicken egg OVA (Sigma-Aldrich, Mo., USA) and 400 μg of aluminium potassium sulphate adjuvant (alum; AJAX Chemicals, NSW, Australia) in 500 μl of 0.9% w/v normal saline solution (Baxter Health Care, NSW, Australia) on day 0 and day 14. […]
(§8) IHC was used to detect TGF-β1 (using a polyclonal antibody; sc-146; Santa Cruz Biotechnology, Santa Cruz, Calif., USA; 1:1000 dilution), α-smooth muscle actin (α-SMA; a marker of myofibroblast differentiation; using a monoclonal antibody; M0851; DAKO Antibodies, Glostrup, Denmark; 1:200 dilution) and thymic stromal lymphopoietin (TSLP; a marker for epithelial damage; using a polyclonal antibody; ABT330; EMD Millipore Corp'. Temecula, Calif., USA; 1:1000 dilution). Primary antibody staining was detected using the DAKO EnVision anti-rabbit or anti-mouse kits and 3,3′-Diaminobenzidine (DAB) chromogen, while negative controls, which were exposed to the EnVision kits in the absence of any primary antibody, were also included. […]

Experiment [5] has as its system chronic model of ovalbumin (OVA)-induced AAD. The experiment can be described thus: AHR by invasive plethysmography (methacholine), chronic OVA-induced AAD model. Type of experiment: in vivo, Balb/c mice. Conditions: airway resistance to nebulized methacholine; vs OVA group. As to the method: as §5, with “OVA. […]” for “OVA.”
On day 78 (24 hours after the final intranasal administration of PBS or various treatments detailed), mice were anesthetized with an i.p injection of ketamine 10 mg/kg and xylazine 2 mg/kg BW (in 0.9% w/v saline). […] The airway resistance of each mouse was then measured (reflecting changes in AHR) in response to increasing doses of nebulized acetyl-β-methylcholine chloride (methacholine; Sigma Aldrich, Mo., USA), delivered intratracheally, from 3.125-50 mg/ml over 5 doses, to elicit bronchoconstriction. […]

The subject of experiment [6] is α-SMA-stained myofibroblasts. The experiment in a line: Subepithelial myofibroblast accumulation (α-SMA IHC), chronic OVA-induced AAD model. Type of experiment: in vivo, Balb/c mice. Conditions: OVA-treated mice; OVA alone 1.72±0.07, saline 0.44±0.13. As to the method:
as §7, §8

Experiment [7] has as its system chronic model of ovalbumin (OVA)-induced AAD. The experiment can be described thus: Peri-bronchial inflammation score, chronic OVA-induced AAD model. Type of experiment: in vivo, Balb/c mice. Conditions: scale 0 to 4; OVA-treated mice, intranasal treatment days 64-77; OVA alone 1.70±0.60, saline 0.15±0.40. As to the method:
Six-to-eight week-old female Balb/c mice were obtained from Monash Animal Services (Monash University, Clayton, Victoria, Australia) and housed under a controlled environment, on a 12 hour light/12 hour dark lighting cycle with free access to water and lab chow (Barastock Stockfeeds, Pakenham, Victoria, Australia). All mice were provided an acclimatization period of 4-5 days before any experimentation.
as §5, with “OVA. […]” for “OVA.”

Experiment [8] has the same test system. The experiment can be described thus: Subepithelial collagen deposition (Masson's trichrome), chronic OVA-induced AAD model. Conditions: OVA-treated mice; OVA alone 26.26±1.37, saline 8.07±0.58. The format is in vivo, Balb/c mice. As to the method: as §5, §6
Experiment [9] has the same test system. The experiment can be described thus: Hydroxyproline assay of total lung collagen concentration, chronic OVA-induced AAD model. The format is in vivo, Balb/c mice. Conditions: collagen content/dry weight, OVA alone 3.82±0.10, saline 2.84±0.11. As to the method: as §5, with “OVA. […]” for “OVA.”
The second largest lung lobe from each mouse was processed as previously described (Royce et al. (2009) supra; Royce et al. (2014) supra; Royce et al. (2015) supra) for the measurement of hydroxyproline content, which was determined from a standard curve of purified trans-4-hydroxy-L-proline (Sigma-Aldrich). […]

For experiment [10], the system named is thymic stromal lymphopoietin (TSLP). The experiment can be described thus: TSLP immunohistochemistry (epithelial damage), chronic OVA-induced AAD model. The format is in vivo, Balb/c mice. Conditions: OVA-treated mice; OVA alone 4.61±0.53, saline 1.00±0.30. Here is the method: as §7, §8
Another experiment deals with goblet cells. The experiment in a line: Goblet cell metaplasia (ABPAS staining), chronic OVA-induced AAD model. Conditions: OVA-treated mice; OVA alone 4.83±0.20, saline 1.62±0.32. The format is in vivo, Balb/c mice. Here is the method: as §5, §6

As for `Cc1ccc(=O)n(-c2ccccc2)c1` [pirfenidone, Pirfenidone], in experiment [1], the “bleomycin-induced increase in subepithelial ECM/collagen deposition” value is on record as “no effect”. For the same compound, the “bleomycin-induced lung inflammation (inflammation score)” value in experiment [2] is listed as “only partially reduce”. Moreover, in [3], the “bleomycin-induced increase in interstitial fibrosis” value was “normalized”.
For Serelaxin [RLX], the epithelial thickness in [4] came to 18.19±0.74 μm^2. The “epithelial TGF-β1 expression” value in the experiment with TGF-β1 is listed as 5.85±1.42. In experiment [5], the “decrease of AHR” value is around 50%. In experiment [6], the “number of α-SMA-stained myofibroblasts in the subepithelial layer” value was found to be 1.08±0.10 per 100 μm BM length. Besides, in experiment [7], the peri-bronchial inflammation score was found to be 1.55±0.83. For the same compound, the “subepithelial collagen (relative to basement membrane length)” value in experiment [8] amounted to 18.27±2.26 μm. For the same compound, in experiment [9], the “total lung collagen concentration” value is reported as 3.08±0.23%. Besides, the “number of TSLP-positive cells within the airway epithelium” value in experiment [10] is recorded as 3.14±0.34 per 100 μm of BM length. Further, the goblet cell count in the experiment with goblet cells is 5.08±0.25 goblet cells/100 μm BM length.
